What was measured:
human CB2 receptors = human CB2 receptors (Homo sapiens (Human), UniProt P34972); test: cAMP assay, CHO cells expressing human CB2 receptors; type: cell-based; conditions: functional cAMP assay, CHO cells expressing human CB2; read-out: human CB2 EC50
Procedure: (§1) CHO cells expressing human CB1 or CB2 receptors are seeded 17-24 hours prior to the experiment 50.000 cells per well in a black 96 well plate with flat clear bottom (Corning Costar #3904) in DMEM (Invitrogen No. 31331), 1×HT supplement, with 10% fetal calf serum and incubated at 5% CO2 and 37° C. in a humidified incubator. The growth medium was exchanged with Krebs Ringer Bicarbonate buffer with 1 mM IBMX and incubated at 30° C. for 30 min. Compounds were added to a final assay volume of 100 μl and incubated for 30 min at 30° C. Using the cAMP-Nano-TRF detection kit the assay (Roche Diagnostics) was stopped by the addition of 50 μl lysis reagent (Tris, NaCl, 1.5% Triton X100, 2.5% NP40, 10% NaN3) and 50 μl detection solutions (20 μM mAb Alexa700-cAMP 1:1, and 48 μM Ruthenium-2-AHA-cAMP) and shaken for 2 h at room temperature. The time-resolved energy transfer is measured by a TRF reader (Evotec Technologies GmbH), equipped with a ND:YAG laser as excitation source. The plate is measured twice with the excitation at 355 nm and at the emission with a delay of 100 ns and a gate of 100 ns, total exposure time 10 s at 730 (bandwidth 30 nm) or 645 nm (bandwidth 75 nm), respectively.
(§2) EC50 values were determined using Activity Base analysis (ID Business Solution, Limited).

human CB1 receptors = human CB1 receptors (Homo sapiens (Human), UniProt P21554); test: cAMP assay, CHO cells expressing human CB1 receptors; type: cell-based; conditions: functional cAMP assay, CHO cells expressing human CB1; read-out: human CB1 EC50
Procedure: as §1, §2

Sequence of human CB2 receptors (P34972 whole entry): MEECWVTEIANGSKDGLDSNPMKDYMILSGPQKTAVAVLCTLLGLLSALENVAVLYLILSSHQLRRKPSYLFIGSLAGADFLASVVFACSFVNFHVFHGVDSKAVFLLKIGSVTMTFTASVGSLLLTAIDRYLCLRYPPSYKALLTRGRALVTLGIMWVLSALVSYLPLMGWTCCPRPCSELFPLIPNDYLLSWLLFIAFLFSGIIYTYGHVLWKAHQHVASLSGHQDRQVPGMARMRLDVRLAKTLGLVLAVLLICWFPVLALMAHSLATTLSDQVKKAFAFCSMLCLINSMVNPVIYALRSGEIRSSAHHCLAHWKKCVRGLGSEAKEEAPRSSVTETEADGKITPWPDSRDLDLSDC
Sequence of human CB1 receptors (P21554 whole entry): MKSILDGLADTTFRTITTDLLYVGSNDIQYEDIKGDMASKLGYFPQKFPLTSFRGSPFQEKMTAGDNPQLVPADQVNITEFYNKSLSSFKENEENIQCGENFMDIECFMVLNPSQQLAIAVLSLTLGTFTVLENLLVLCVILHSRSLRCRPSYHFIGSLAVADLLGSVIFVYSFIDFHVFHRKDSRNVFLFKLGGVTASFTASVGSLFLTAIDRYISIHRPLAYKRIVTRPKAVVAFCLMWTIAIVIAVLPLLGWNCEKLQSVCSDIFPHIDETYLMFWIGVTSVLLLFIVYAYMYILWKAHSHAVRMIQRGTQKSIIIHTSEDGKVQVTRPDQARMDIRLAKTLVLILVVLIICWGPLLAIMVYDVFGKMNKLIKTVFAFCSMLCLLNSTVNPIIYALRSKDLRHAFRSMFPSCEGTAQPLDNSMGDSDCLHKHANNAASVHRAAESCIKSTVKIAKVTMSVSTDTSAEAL

SMILES | EC50 (human CB2 receptors) [nM] | EC50 (human CB1 receptors) [nM]
NC(=O)CC(NC(=O)c1ccc(C2CC2)c(OCC2CC2)n1)C1CCCCC1 (single isomer, unassigned; (+)) [Example 18, (+)-5-Cyclopropyl-6-cyclopropylmethoxy-pyridine-2-carboxylic acid (2-carbamoyl-1-cyclohexyl-ethyl)-amide] | 1.5 | > 10000
NC(=O)CC(NC(=O)c1ccc(C2CC2)c(OCC2CC2)n1)C1CC1 (single isomer, unassigned; (+)) [Example 28, (+)-5-Cyclopropyl-6-cyclopropylmethoxy-pyridine-2-carboxylic acid (2-carbamoyl-1-cyclopropyl-ethyl)-amide] | 3 | > 10000
NC(=O)CC(NC(=O)c1ccc(C2CC2)c(OCC2CC2)n1)C(F)(F)F (single isomer, unassigned; (+)) [Example 32, (+)-5-Cyclopropyl-6-cyclopropylmethoxy-pyridine-2-carboxylic acid (1-carbamoylmethyl-2,2,2-trifluoro-ethyl)-amide] | 137 | > 10000
NC(=O)CC(NC(=O)c1ccc(C2CC2)c(OCC2CC2)n1)C1CCCCC1 (single isomer, unassigned; (-)) [Example 17, (−)-5-Cyclopropyl-6-cyclopropylmethoxy-pyridine-2-carboxylic acid (2-carbamoyl-1-cyclohexyl-ethyl)-amide] | 6.2 | > 10000
NC(=O)CC(NC(=O)c1ccc(C2CC2)c(OCC2CC2)n1)C1CC1 (single isomer, unassigned; (-)) [Example 27, (−)-5-Cyclopropyl-6-cyclopropylmethoxy-pyridine-2-carboxylic acid (2-carbamoyl-1-cyclopropyl-ethyl)-amide] | 1.4 | > 10000
NC(=O)CC(NC(=O)c1ccc(C2CC2)c(OCC2CC2)n1)C(F)(F)F (single isomer, unassigned; (-)) [Example 31, (−)-5-Cyclopropyl-6-cyclopropylmethoxy-pyridine-2-carboxylic acid (1-carbamoylmethyl-2,2,2-trifluoro-ethyl)-amide] | 8.8 | > 10000
NC(=O)CC(NC(=O)c1ccc(C2CC2)c(OCC2CC2)n1)C1CCOCC1 (single isomer, unassigned; (-)) [Example 34, (−)-5-Cyclopropyl-6-cyclopropylmethoxy-pyridine-2-carboxylic acid [2-carbamoyl-1-(tetrahydro-pyran-4-yl)-ethyl]-amide] | 2.2 | > 10000
NC(=O)[C@@H]1CCCC[C@@H]1NC(=O)c1ccc(N2CC(F)(F)C2)c(OCC2CC2)n1 (stereo in doubt) [Example 20, (+)-cis-6-Cyclopropylmethoxy-5-(3,3-difluoro-azetidin-1-yl)-pyridine-2-carboxylic acid (2-carbamoyl-cyclohexyl)-amide] | 15.8 | > 10000
CCOC(=O)CC1(NC(=O)c2ccc(C3CC3)c(OCC3CC3)n2)COC1 [Example 1, {3-[(5-Cyclopropyl-6-cyclopropylmethoxy-pyridine-2-carbonyl)-amino]-oxetan-3-yl}-acetic acid ethyl ester] | 53.7 | > 10000
CC(C)CC(CC(=O)OC(C)(C)C)NC(=O)c1ccc(N2CC(F)(F)C2)c(OCC2CC2)n1 (centres unmarked) [Example 2, tert-Butyl 3-({[6-(cyclopropylmethoxy)-5-(3,3-difluoroazetidin-1-yl)pyridin-2-yl]carbonyl}amino)-5-methylhexanoate] | 676 | > 10000
CCOC(=O)CC(NC(=O)c1ccc(N2CC(F)(F)C2)c(OCC2CC2)n1)c1ccccc1 (centres unmarked) [Example 4, 3-{[6-Cyclopropylmethoxy-5-(3,3-difluoro-azetidin-1-yl)-pyridine-2-carbonyl]-amino}-3-phenyl-propionic acid ethyl ester] | 4.2 | > 10000
CCOC(=O)CC(C)(C)NC(=O)c1ccc(N2CC(F)(F)C2)c(OCC2CC2)n1 [Example 5, 3-{[6-Cyclopropylmethoxy-5-(3,3-difluoro-azetidin-1-yl)-pyridine-2-carbonyl]-amino}-3-methyl-butyric acid ethyl ester] | 518 | > 10000
CNC(=O)CC(C)(C)NC(=O)c1ccc(N2CC(F)(F)C2)c(OCC2CC2)n1 [Example 6, 6-Cyclopropylmethoxy-5-(3,3-difluoro-azetidin-1-yl)-pyridine-2-carboxylic acid (1,1-dimethyl-2-methylcarbamoyl-ethyl)-amide] | 172 | > 10000
CCCCCC(CC(=O)NC)NC(=O)c1ccc(N2CC(F)(F)C2)c(OCC2CC2)n1 (centres unmarked) [Example 7, 6-Cyclopropylmethoxy-5-(3,3-difluoro-azetidin-1-yl)-pyridine-2-carboxylic acid (1-methylcarbamoylmethyl-hexyl)-amide] | 55.6 | > 10000
CNC(=O)CC(CCc1ccccc1)NC(=O)c1ccc(N2CC(F)(F)C2)c(OCC2CC2)n1 (centres unmarked) [Example 8, 6-Cyclopropylmethoxy-5-(3,3-difluoro-azetidin-1-yl)-pyridine-2-carboxylic acid (1-methylcarbamoylmethyl-3-phenyl-propyl)-amide] | 301 | > 10000
CC(C)CC(CNC(=O)c1ccc(N2CC(F)(F)C2)c(OCC2CC2)n1)C(=O)O (centres unmarked) [Example 11, 2-[({[6-(Cyclopropylmethoxy)-5-(3,3-difluoroazetidin-1-yl)pyridin-2-yl]carbonyl}amino)methyl]-4-methylpentanoic acid] | 967 | > 10000
CC(C)[C@H](CC(N)=O)NC(=O)c1ccc(N2CC(F)(F)C2)c(OCC2CC2)n1 [Example 19, 6-Cyclopropylmethoxy-5-(3,3-difluoro-azetidin-1-yl)-pyridine-2-carboxylic acid ((S)-1-carbamoylmethyl-2-methyl-propyl)-amide] | 3.2 | > 10000
NC(=O)[C@H]1CCCC[C@H]1NC(=O)c1ccc(N2CC(F)(F)C2)c(OCC2CC2)n1 [Example 21, (−)-cis-6-Cyclopropylmethoxy-5-(3,3-difluoro-azetidin-1-yl)-pyridine-2-carboxylic acid (2-carbamoyl-cyclohexyl)-amide] | 407 | > 10000
CCOC(=O)CC(CC(C)C)NC(=O)c1ccc(C2CC2)c(OCC2CC2)n1 (centres unmarked) [Example 22, 3-[(5-Cyclopropyl-6-cyclopropylmethoxy-pyridine-2-carbonyl)-amino]-5-methyl-hexanoic acid ethyl ester] | 11.9 | > 10000
NC(=O)CC1(NC(=O)c2ccc(C3CC3)c(OCC3CC3)n2)COC1 [Example 23, 5-Cyclopropyl-6-cyclopropylmethoxy-pyridine-2-carboxylic acid (3-carbamoylmethyl-oxetan-3-yl)-amide] | 1.4 | > 10000
CC(C)C[C@@H](CC(N)=O)NC(=O)c1ccc(C2CC2)c(OCC2CC2)n1 [Example 24, (−)-5-Cyclopropyl-6-cyclopropylmethoxy-pyridine-2-carboxylic acid (1-carbamoylmethyl-3-methyl-butyl)-amide] | 3 | > 10000
CC(C)C[C@H](CC(N)=O)NC(=O)c1ccc(C2CC2)c(OCC2CC2)n1 [Example 25, (+)-5-Cyclopropyl-6-cyclopropylmethoxy-pyridine-2-carboxylic acid (1-carbamoylmethyl-3-methyl-butyl)-amide] | 4.3 | > 10000

Reference: patent US9522886B2, “Pyridine derivatives” (Hoffmann-La Roche Inc., priority 2012, dated 2016)
